The target in this assay is T1, NR2F6 (ligand binding domain, amino acids 163-404) (Homo sapiens, UniProt P10588).
T1 construct: HIS (N, cleaved yes); FLAG (N, cleaved yes); TEV site (N, cleaved yes); made in house; host or cells: E. coli BL21 (DE3)
T1 sequence (P10588 163-404): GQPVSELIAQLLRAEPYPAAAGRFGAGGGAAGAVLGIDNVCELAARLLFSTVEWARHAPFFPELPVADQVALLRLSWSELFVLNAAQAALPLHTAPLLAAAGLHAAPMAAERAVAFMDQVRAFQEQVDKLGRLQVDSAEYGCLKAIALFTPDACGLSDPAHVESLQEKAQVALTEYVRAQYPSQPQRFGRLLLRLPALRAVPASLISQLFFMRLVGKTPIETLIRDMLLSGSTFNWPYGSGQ
The assay is described as follows: Thermoshift analysis (TSA) of compound binding to NR2F6. The note with it: 100 μM compound; for Tm: NR2F6 alone Tm 48 °C. As for the experimental part:
The binding interaction between target protein NR2F6 and 139 compounds selected from an in silico screen was assessed using thermoshift analysis (TSA). Thermoshift is a physical technique used to determine the melting temperature of a protein. The interaction of the ligand to the folded state of the protein shifts the melting temperature. In the experimental system used, the NR2F6 protein is mixed with the ligand and the fluorescent dye SYPRO Orange®. The fluorescence is monitored over temperature gradient between 20 and 95° C. with 0.5° C. increment. The dye binds to the hydrophobic regions of molten globules and denatured proteins resulting in an increase of fluorescence. A plot of the fluorescence is obtained and used to determine the melting temperature in absence and presence of ligand.
The ligand binding domain of NR2F6 (amino acids 163-404) was cloned for soluble expression in E. coli with an N-terminal HIS-FLAG-TEV-tag. Expression was performed in BL21 (DE3) cells. In brief, a 12L E. coli culture was induced with IPTG in logarithmic phase and further incubated over night at 18° C. Cells were harvested via centrifugation, washed with buffer and stored at […] until purification.
The purification procedure performed consists of HIS affinity chromatography, tag cleavage, negative affinity chromatography, size exclusion chromatography and ion exchange chromatography.
Thermoshift analysis was performed on 139 Compounds that were stored as powder in DMSO stocks. A reaction volume of 25 μl was used, with reaction temperatures being increased in 0.5 increments from 20-95° C. in 96 well, PCR plates (Hard-Shell®, HSP-9655). The control was NR2F6 protein alone in 1% DMSO. For performing the reaction, a reaction buffer comprising of the following was utilized: 20 mM HEPES pH 6.85, 150 mM NaCl, 10% Glycerin and 0.5 mM TCEP.
The following pipetting sequence was used: 1) Add appropriate volume of target enzyme in reaction buffer; 2) Add appropriate volume of dye SYPRO Orange® in reaction buffer; 3) Add inhibitor in 100% DMSO (1% final DMSO conc); 4) Measure fluorescence
Fluorescence was quantified using a CFX Connect™ Real-Time PCR Detection System (BioRad)
An increase in melting temperature is indicative for compound binding.

The mark [1] stands for this setting: Table 1.1, 0.5 mg/ml NR2F6, 1% DMSO.
[2] abbreviates: Table 1.1, shift versus NR2F6 alone (Tm 48 °C).

This note sets out measurements from patent publication US11241427B2, “Small molecule modulators of NR2F6 activity” (Regen Biopharma, Inc., priority 2015, dated 2022).

Each structure is given as a SMILES string.

`CCCCCCn1c(NCC)nc2c1c(=O)n(C)c(=O)n2C` [Cpd 130]: under setting [1], the Tm is 47.5 °C. The “delta Tm” value under setting [2] was −0.5 °C.

For the molecule `CC(=O)c1ccc(N2CCN(C(=S)Nc3ccc(Oc4ccccc4)cc3)CC2)cc1` [Cpd 131], under setting [1], the Tm was determined as 47.5 °C. Moreover, under setting [2], the “delta Tm” value was −0.5 °C.

For `O=C(Nc1ccncc1)c1ccc(Cl)c(S(=O)(=O)N2CCc3ccccc32)c1` [Cpd 132], the Tm under setting [1] worked out at 47.5 °C. Further, the “delta Tm” value under setting [2] is −0.5 °C.

As for `CCN(CC)S(=O)(=O)c1cccc(NC(=O)CNc2cccc(S(=O)(=O)N3CCCC3)c2)c1` [Cpd 133], the Tm is, setting by setting: under setting [1], 49 °C; (Table 1.2) 49 °C. In addition, the ΔTm at 100 µM (Table 1.1, shift versus NR2F6 alone (Tm 48 °C), read-out: delta Tm) was found to be 1 °C.

For the molecule `c1ccc(CNc2ncnc3ccccc23)cc1` [Cpd 134], the Tm under setting [1] was 47.5 °C. Moreover, the “delta Tm” value under setting [2] was −0.5 °C.

Consider `Cc1ccc(F)cc1NC(=O)Cc1nn(C)c(=O)c2ccccc12` [Cpd 135], for which the Tm under setting [1] is 47.5 °C. Further, under setting [2], the “delta Tm” value was −0.5 °C.

For `S=C(NCCc1ccccc1)Nc1cccc2cnccc12` [Cpd 136], the Tm under setting [1] came to 47.5 °C. The “delta Tm” value under setting [2] is −0.5 °C.

Regarding `CCN=c1scc(-c2ccc3c(c2)NC(=O)CO3)n1N=C1CCCC1` [Cpd 137], the Tm under setting [1] is 48 °C. Under setting [2], the “delta Tm” value is 0 °C.

For `COc1ccc(/C=N/OCC(=O)NC(c2ccccc2)c2ccccc2)cc1OC` [Cpd 138], the Tm under setting [1] is 46 °C. Also, under setting [2], the “delta Tm” value is −2 °C.

`CC(=O)c1c(C)[nH]c(C(=O)OCC(=O)Nc2ccc(Cl)cc2[N+](=O)[O-])c1C` [Cpd 139]: the Tm under setting [1] is 48.5 °C. For the same molecule, the “delta Tm” value under setting [2] came to 0.5 °C.
